Data set [1] concerns the target T1, human recombinant L1196M ALK kinase domain (amino acids 1093-1411) (Homo sapiens, UniProt Q9UM73, L1196M).
T1 construct: ALK kinase domain (amino acids 1093-1411); made in house
As to the kind of experiment: L1196M mutant ALK enzyme assay (microfluidic mobility shift). The following applies: ATP 60 μM, 0.5 nM enzyme, competitive inhibition fit; read-out: L1196M ALK enzyme assay (Ki). The format is biochemical.

The target in data set [2] is T2, L1196M EML4-ALK (NIH-3T3 EML4-ALK v1 L1196M cells) (Homo sapiens, UniProt Q9UM73, L1196M).
T2 construct: expressed in transfected cells; the other entry of the earlier key: EML4 (Q9HC35, Echinoderm microtubule-associated protein-like 4)
As to the kind of experiment: Cellular phospho-ALK (Tyr1604) ELISA assay for L1196M EML4-ALK. In kind it is cell-based. The note with it: NIH-3T3 EML4-ALK v1 L1196M cells, 1 hour, phospho-ALK (Tyr1604); read-out: ELISA assay for L1196M EML4-ALK (IC50). Background: In an ELISA, binding on a coated surface is turned into a signal by an enzyme label.

Data set [3] addresses T3, human recombinant wild-type ALK kinase domain (amino acids 1093-1411) (Homo sapiens, UniProt Q9UM73).
T3 construct: ALK kinase domain (amino acids 1093-1411); made in house
As to the kind of experiment: Wild-type ALK enzyme assay (microfluidic mobility shift). The format is biochemical. The note with it: ATP 60 μM, competitive inhibition fit, read-out: WT ALK enzyme assay (Ki).
Procedure: The reactions were incubated for 1 h at room temperature, stopped by the addition of 0.1 M EDTA, pH 8, and the extent of reactions (˜15-20% conversion with no inhibitor) was determined after electrophoretic separation of the fluorescently labeled peptide substrate and phosphorylated product on an LabChip EZ Reader II (Caliper Life Sciences, Hopkinton, Mass.).

Data set [4] deals with T4, WT EML4-ALK (NIH-3T3 EML4-ALK wt v1 cells) (Homo sapiens, UniProt Q9UM73).
T4 construct: expressed in transfected cells; the other entry of the earlier key: EML4 (Q9HC35, Echinoderm microtubule-associated protein-like 4)
As to the kind of experiment: Cellular phospho-ALK (Tyr1604) ELISA assay for WT EML4-ALK. The format is cell-based. The following applies: 1 hour, read-out: ELISA assay for WT EML4-ALK (IC50).
Procedure: Cellular Phospho-ALK (Tyr1604) ELISA Assay for EML4-ALK:
The cells were maintained at 37° C. in a 5% CO2 incubator in DMEM (Invitrogen, Carlsbad, Calif.) medium supplemented with 1% L-glutamine, 1% penicillin and streptomycin, 1 ug/ml puromycin and 10% new born calf serum (NCS) in T-75 flasks.
Cells were washed with PBS and re-suspended in DMEM medium supplemented with 0.5% NCS and 1% pen/strep and seeded into 96-well plates at density of 20,000 cells/well/100 μl and incubated in the incubator at 37° C. and 5% CO2. After 20 hours of incubation, 100 μl of assay media (DMEM) in presence of designated PF-compounds concentrations or controls (DMSO) were added into plates and incubated for 1 hour in the incubator. Media was then removed and lysis buffer, containing phosphatase inhibitors and phenylmethanesulfonyl fluoride (PMSF), was added to wells and shaken at 4° C. for 30 minutes to generate protein lysates.
A phospho-ALK (Tyr1604) rabbit antibody was coated onto the 96-well microplates. 50 μl of cell lysates were added to the antibody coated plate and incubated at room temperature for 2 hours. Following extensive washing with 0.1% Tween 20 in PBS to remove unbound materials, ALK mouse mAb was added to detect captured phospho-ALK (Tyr1604) and phospho-ALK fusion proteins. Anti-mouse IgG, HRP-linked antibody was then used to recognize the bound detection antibody. Finally, the chemiluminescent reagent was added and incubated for 10 minutes for signal development. The assay plates were read in the Envision plate reader in the luminescent mode. IC50 values were calculated by a concentration-response curve fitting using a four-parameter analytic method.

Where two headings read alike, the source gives them in different places.

A word on the Ki: it is a measure of affinity in units of concentration, obtained from inhibition or displacement. As a reminder, the IC50 is the concentration that inhibits the measured activity by half. On to `C[C@H]1Oc2nc(cnc2N)-c2c(nn(C)c2C#N)CN(C2CC2)C(=O)c2ccc(F)cc21` [Example 54, (10R)-7-amino-16-cyclopropyl-12-fluoro-2,10-dimethyl-15-oxo-10,15,16,17-tetrahydro-2H-8,4-(azeno)pyrazolo[4,3-h][2,5,11]benzoxadiazacyclotetradecine-3-carbonitrile], for which the ring closure, isolated yield (cc_pd bond, 12-membered ring, Pd(OAc)2/cataCXium A/PivOH/KOAc, t-AmOH/water (1 drop), 37.0 mM, […]) came to 54%. The Ki was 0.06 nM in data set [1] and below 0.07 nM in data set [3]. Further, the half-inhibitory concentration (IC50) in data set [2] was 3.03 nM; in data set [4] it was 0.332 nM.
For the setting “amide bond, 12-membered ring, HATU/DIEA, DMF/THF, 18.6 mM, 0.0 °C”, `C[C@H]1Oc2cc(nnc2N)-c2c(nn(C)c2C#N)CN(C)C(=O)c2ccc(F)cc21` [Example 60, (10R)-7-amino-12-fluoro-2,10,16-trimethyl-15-oxo-10,15,16,17-tetrahydro-2H-8,4-(metheno)pyrazolo[4,3-h][2,5,6,11]benzoxatriazacyclotetradecine-3-carbonitrile] had a ring closure, isolated yield of 9%. The Ki amounted to 21.5 nM in data set [1] and 4.6 nM in data set [3].
For the setting “amide bond, 12-membered ring, HATU/DIEA, DMF, 6.7 mM”, `C[C@H]1Oc2nc(cnc2N)-c2c(C#N)cccc2CN(C)C(=O)c2ccc(F)cc21` [Example 97, (5R)-8-amino-3-fluoro-5,17-dimethyl-18-oxo-5,16,17,18-tetrahydro-7,11-(azeno)dibenzo[g,l][1,4,10]oxadiazacyclotetradecine-12-carbonitrile] had a ring closure, isolated yield of 42%. Besides, the values for the Ki in data set [1] and in data set [3] were 24.7 nM and 3.5 nM, respectively.
Take `CC1Oc2cc(cnc2N)-c2c(cnn2C)CCCCCOc2ccc(F)cc21` (centres unmarked): the ring closure, isolated yield (cc_pd bond, Pd(OAc)2/cataCXium A/KOAc, t-amyl alcohol, 30.0 mM, 120.0 °C) turned out to be 43%.
Take `CC1Cc2cc(cnc2N)-c2c(nn(C)c2C(N)=O)CN(C)C(=O)c2ccc(F)cc21` (centres unmarked) [Example 62, 7-amino-12-fluoro-2,10,16-trimethyl-15-oxo-2,9,10,15,16,17-hexahydro-8,4-(metheno)pyrazolo[3,4-d][2,8]benzodiazacyclotetradecine-3-carboxamide]: the Ki in data set [1] is 253 nM; in data set [3], 137 nM. Also, the IC50 in data set [2] was above 10000 nM; in data set [4] it was 7610 nM.
For `CCn1ncc2c1-c1cnc(N)c(c1)O[C@H](C)c1cc(F)ccc1C(=O)N(C)C2` [Example 27, (10R)-7-amino-3-ethyl-12-fluoro-10,16-dimethyl-16,17-dihydro-3H-8,4-(metheno)pyrazolo[3,4-h][2,5,11]benzoxadiazacyclotetradecin-15(10H)-one], in that order: 5.3 nM, 0.38 nM, 157 nM and 9.15 nM.
For `CC1Cc2cc(cnc2N)-c2c(nn(C)c2C#N)CN(C)C(=O)c2ccc(F)cc21` (single isomer, unassigned) [Example 64, 7-amino-12-fluoro-2,10,16-trimethyl-15-oxo-2,9,10,15,16,17-hexahydro-8,4-(metheno)pyrazolo[3,4-d][2,8]benzodiazacyclotetradecine-3-carbonitrile], in that order: 33.3 nM, 34.4 nM, 1190 nM and 407 nM.
For `CC1Cc2cc(cnc2N)-c2c(nn(C)c2C#N)CN(C)C(=O)c2ccc(F)cc21` (single isomer, unassigned) [Example 63, 7-amino-12-fluoro-2,10,16-trimethyl-15-oxo-2,9,10,15,16,17-hexahydro-8,4-(metheno)pyrazolo[3,4-d][2,8]benzodiazacyclotetradecine-3-carbonitrile], in that order: 0.13 nM, 0.12 nM, 8.7 nM and 1.95 nM.
Consider `CCCn1nnc2c1-c1cnc(N)c(c1)O[C@H](C)c1cc(F)ccc1C(=O)N(C)C2` [Example 41, (10R)-7-amino-12-fluoro-10,16-dimethyl-3-propyl-16,17-dihydro-3H-8,4-(metheno)[1,2,3]triazolo[4,5-h][2,5,11]benzoxadiazacyclotetradecin-15(10H)-one], for which the Ki in data set [1] was found to be 19 nM; in data set [3], 1.5 nM. For the same compound, the half-maximal inhibitory concentration (IC50) was found to be 680 nM in data set [2] and 33.1 nM in data set [4].
Regarding `C[C@H]1Oc2cc(cnc2N)-c2c(nn(C)c2C#N)CN(C)Cc2ccc(F)cc21` [Example 36, (10R)-7-amino-12-fluoro-2,10,16-trimethyl-10,15,16,17-tetrahydro-2H-4,8-(metheno)pyrazolo[4,3-h][2,5,11]benzoxadiazacyclotetradecine-3-carbonitrile], the Ki in data set [1] was 0.56 nM; in data set [3], below 0.2 nM. Besides, the results for the IC50 in data set [2] and in data set [4] were 2.64 nM and 0.18 nM, respectively.
Under “ether bond, 13-membered ring, NaH, DMF, 51.0 mM, 50.0 °C, 2 steps”, `Cn1ncc2c1-c1cnc(N)c(c1)OCc1cc(F)ccc1OCCC2` had a ring closure, isolated yield of 37%.
In the case of `C[C@@H]1Oc2nc(cnc2N)-c2cn(C)nc2CN(C)C(=O)c2ccc(F)cc21` [Example 83, (10S)-7-amino-12-fluoro-2,10,16-trimethyl-16,17-dihydro-2H-8,4-(azeno)pyrazolo[4,3-h][2,5,11]benzoxadiazacyclotetradecin-15(10H)-one], the ring closure, isolated yield (cc_pd bond, 12-membered ring, Pd(OAc)2/cataCXium A/KOAc, t-amyl alcohol, 120.0 °C, 2 steps) was 11%. Also, the inhibition constant Ki amounted to 74 nM in data set [1] and 47.6 nM in data set [3].
For the compound `CC1Oc2nc(cnc2N)-c2c(nn(C)c2C#N)Cn2ccnc2-c2ccc(F)cc21` (single isomer, unassigned) [Example 109, 8-amino-3-fluoro-5,13-dimethyl-13,15-dihydro-5H-7,11-(azeno)imidazo[1,2-k]pyrazolo[4,3-h][2,5,11]benzoxadiazacyclotetradecine-12-carbonitrile], the Ki in data set [1] turned out to be 4.7 nM; in data set [3], 8.1 nM. Besides, the figures for the IC50 in data set [2] and in data set [4] were 55.6 nM and 11 nM, respectively.
In the same order, the values of `CC1Oc2cc(cnc2N)-c2ccccc2CN(C)C(=O)c2ccc(F)cc21` (centres unmarked) [Example 8, 8-amino-3-fluoro-5,17-dimethyl-16,17-dihydro-7,11-(metheno)dibenzo[g,l]-[1,4,10]-oxadiazacyclotetradecin-18(5H)-one] are 10 nM, 0.9 nM, 680 nM and 12.1 nM.
Consider `COc1nn(C)c2c1-c1cnc(N)c(c1)OC(C1CC1)c1cc(F)ccc1C(=O)N(C)C2` (single isomer, unassigned) [Example 26, 7-amino-10-cyclopropyl-12-fluoro-3-methoxy-1,16-dimethyl-16,17-dihydro-1H-8,4-(metheno)pyrazolo[4,3-h][2,5,11]benzoxadiazacyclotetradecin-15(10H)-one], for which the Ki in data set [1] was 15 nM; in data set [3], 3.3 nM. Besides, the results for the IC50 in data set [2] and in data set [4] were 511 nM and 50.5 nM, respectively.
With `COc1nn(C)c2c1-c1cnc(N)c(c1)OC(C1CC1)c1cc(F)ccc1C(=O)N(C)C2` (single isomer, unassigned) [Example 25, 7-amino-10-cyclopropyl-12-fluoro-3-methoxy-1,16-dimethyl-16,17-dihydro-1H-8,4-(metheno)pyrazolo[4,3-h][2,5,11]benzoxadiazacyclotetradecin-15(10H)-one], the values for the Ki in data set [1] and in data set [3] were 0.56 nM and below 0.2 nM, respectively. Further, the IC50 amounted to 21.9 nM in data set [2] and 1.35 nM in data set [4].
“7-amino-12-fluoro-3-methoxy-1,16,17-trimethyl-16,17-dihydro-1H-8,4-(azeno)pyrazolo[4,3-h][2,5,11]benzoxadiazacyclotetradecin-15(10H)-one [Example 124]”: the Ki worked out at 7.4 nM in data set [1] and 2.1 nM in data set [3]. The results for the IC50 in data set [2] and in data set [4] were 873 nM and 56.2 nM, respectively.
For `CCc1snc2c1-c1cnc(N)c(c1)O[C@H](C)c1cc(F)ccc1C(=O)N(C)C2` [Example 110, (10R)-7-amino-3-ethyl-12-fluoro-10,16-dimethyl-16,17-dihydro-8,4-(metheno)[1,2]thiazolo[4,3-h][2,5,11]benzoxadiazacyclotetradecin-15(10H)-one], in that order: 7.3 nM, 0.56 nM, 447 nM and 9.99 nM.
With `C[C@H]1Oc2nc(cnc2N)-c2c(nn(CC(F)F)c2C#N)CN(C)C(=O)c2ccc(F)cc21` [Example 91, (10R)-7-amino-2-(2,2-difluoroethyl)-12-fluoro-10,16-dimethyl-15-oxo-10,15,16,17-tetrahydro-2H-8,4-(azeno)pyrazolo[4,3-h][2,5,11]benzoxadiazacyclotetradecine-3-carbonitrile], the Ki is 0.315 nM in data set [1] and 0.177 nM in data set [3]. Besides, the IC50 came out at 5.88 nM in data set [2] and 0.68 nM in data set [4].

The record behind these values is patent US8680111B2 (Pfizer Inc., priority 2012, dated 2014).
